Entries after “also recorded” stand apart in the source; their conditions may differ. Where two headings read alike, the source gives them in different places.
Key:
pBR322 DNA = test: Unwinding of supercoiled pBR322 DNA (topoisomerase I assay); conditions: for EC50: read-out: Unwinding concentration, needed to unwind 11 of 22 supercoils, [DNA] 47 μM for phi complexes, 31.5 μM others, 60 min
B-form DNA = conditions: cited from earlier work
Solubility in buffer = assay type: physicochemical; conditions: for Solubilities in Buffer: chloride salts, 5 mM Tris, 50 mM NaCl, pH 7.5, 24 hrs., 25° C., SD in parentheses; for solubility: in words
Description: Measurement of Solubilities: Solubilities of the compounds wre measured by preparing saturated solutions of metal complex in buffer (50mM NaCl, 5 mM Tris, pH 7.5) and allowng the suspensions to equilibrate for 24 hours at 25 C. After that time, the solutions were spun down in an Eppendorff microcentrifuge at 15,000 rev/min for 2 minutes and the supernatant was carefully removed by pipette. After dilution, the ruthenuim concentrattions were measured by UV-visible absorbance.

calf thymus DNA [1] = test: Spectroscopic properties (absorption, emission, lifetime) on binding to calf thymus DNA; conditions: for Emission Enchantment (I/Io): 7 μM Ru, 40:1 nucleotide/metal, 20° C.
Description: Instrumentation: NMR spectra were recorded on a Varian VXR-300MHz spectormeter. FABS were performed using a VG Analytical 7070EQ Mas Spectrometer (78), and elemental analyses were done by Galbraith Laboratories in Nashville, Tenn. UV-Visible absorbance spectal were recorded on a Varian CARY-219 absorbance spectorphotometer. Extinction coefficients for the compounds were determined versus ruthenium concentrations obtained by atomic absorption spectroscopy with known ruthenium standards. [Ru(bpy)3 ]Cl2 solutions were also employed for these determinations as an internal standard. A varian AA-875 atomic absorption spectrophotometer was used for these determinations.
Emission spectra were measured on a Perkin-Elmer LS-5 fluorescence spectrometer. The samples were excited at their corresponding isosbestic points. All the measurements were made at 20° C. in a thermostatted cuvette holder with 3 nm entrance slit and 10 nm exit slit. Ruthenium solutions employed were 7 μM in concentration and claf thymus DNA was added to a ration of 40:1 nucleotide/metal; ruthenuim-DNA soltuions were allowed to incubate for 15 minutes before enhanced spectra were recorded. The emission enhancement factors were measured by comparing the intensitites at the emission spectral mixima in the absence ad presence of DNA, under similar conditions.
The limunescence lifetime measurements were done on a PRA SPC (single photon countining) spectometer with some minor modifications. The samples were excited with a nitrogen filled tnynratron gated flash lamp and the data were collected using a Tracor Northern 1710 multichannel analyser. The data were then transferred to a PDP-11/03 computer and deconvoluted with PRA software. […] concentrated solution of DNA (5mM DNA-phosphate) in buffer was added to a solution of the metal complex (4 μM) in buffer and allowed to equilibrate. Lifetimes of the samples were measured 0.5 hr after the metal complexes were mixed with DNA. All measurements were made at 20° C. and under air saturated conditions.
Furthermore, for all the complexes, this electronic transition is perturbed on binding to DNA.

calf thymus DNA [2] = test: Equilibrium dialysis of racemic complexes against calf thymus DNA (Scatchard, dialysate CD); assay type: binding; design: Km × 10) equilibrium dialysis (intrinsic binding constant Kb): scale not given here; conditions: for Site size: fit to McGhee and von Hippel equation; for Enantioselectivity: dialysate circular dichroism; for Enantioselectivity / binding affinity for DNA / aggregation in solution / binding curve type (cooperativity): in words; for binding affinity for DNA: comparative; for Km × 10) equilibrium dialysis (intrinsic binding constant Kb): 5 mM Tris, 50 mM NaCl, pH 7.5, standard deviation in parentheses
Description: Equilibrium Dialysis: Equlibrium dialysis of the reacemic metal complexes was perforemd against calf-thymus DNA using procedures described previously. (74) The buffer used was 5 mM Tris, 50 mM NaCl at pH 7.5. Samples were agitated on a shaker bath during equilibration which occurred after three to five days, as determined by control samples containing no DNA. After equilibration, volumes of liquid inside and outside the dialysis bags were determined (approximately 1 and 3 mls, respectively) and circular dichroism of the dialysate was meaxured on a Jasco J-40 spectropolarimeter. Final ruthenium concentration inside and outside the bags were measured by visible absorbance. Data anaylsis was performed on a VAX-780 using non-linear least squares analysis.
Equilibrium Dialysis: Equilibrium binding constants for the metal complexes with DNA may be determined classically by equilibrium dialysis. Calf thymus DNA was dialyzed against the series of mixed ligand complexes using a broad range of ruthenium concentrations. […] The results have been plotted according to Scatchard (88), where r is the ratio of bound metal to DNA-phosphate concentration, and cf is the concentration of free metal complex. The data were fit by non-linear least squares analysis to the McGhee and von Hippel equation (8945) governing random non-cooperative binding to a lattice,
where r is the ratio of bound concentration of ruthenium to the concentration of DNA-phosphate, cf is the concentration of ruthenium free in soltuion, Kb the intrinsic binding constant, and the integer /, which measures the degree of anti-cooperativeity, is the size of a binding site in base pairs. The curves shown reflect the best fit after variation of two parameters: the intrinsic binding constant, Kb, and binding stie size, /. For those complexes were cooperatively was observed, the equation (89) incorporating a cooperativity parameter was used.
Equilibrium dialysis experiments additionally offer the opportunity to examine any enantiomeric selectivities associated with binding. After dialysis of the DNA against the racemic mixture, optical activity observed in the dialysate refelects an enrichment in the dialysate in the less favored enantiomer. For most of the complexes, optical activity was found in the dialysate. Values for the extent of enantiomeric selectivity could not be quanitated in the absence of determinations of DE and assignments of absolute configuration. Assuming that the signs of the circular chroism in the ultraviolet ligand bands are the same for the these ligands as that for the parent phenanthroline complex, (90) we have assigned the absolute configuration of these complexes by comparison to spectra for enantiomers of Ru(phen)3^2+ and have compared levels of enantioselectivity qualitatively through measurements of circular dichroic intensity per rutheium bound. Based upon these assumptions, we find enantionmeric selectivities for the polyridyl complexes to reflect an enrichment in the isomer in the dialysate and the preferential binding of the isomer to the right-handed DNA. This observation is consistent with the preferential intercalation of isomers found earlier for Ru(phen)3^2+ in right-handed B-DNA. (63) We may also compare relative enantioselectivities for different ancillary ligands. […] The same comparison may be seen qualitatively between Ru(phen)2 DIP^2+ and Ru(bpy)2 DIP^2+.

calf thymus DNA [3] = test: Absorption titration with calf thymus DNA (half-reciprocal, hypochromism); assay type: binding; conditions: in words; for binding to DNA: absorption changes too small for Kb
Description: In plots of [DNA]/(εA -εF) versus [DNA], Kb is given by the ratio of the slope to intercept.

DNA = test: Luminescence in presence of DNA (preliminary); assay type: binding; conditions: in words
Description: Ru(phen)2 (dppz)^2+, and Ru(dip)2 (dppz)^2+ seem have similar behavior as described above. […] We are presently tethering this complexes, Ru(bpy)2 (dppz)^2+, Ru(dppz)2 phen^2+, and Ru(phen)2 (dppz)^2+ to oligonucleotides to develop non-radioactive luminescent DNA probes for both heterogeneous and homogeneous assay systems. The probes, constructed in this way should luminesce only upon finding its target sequence.

[4] = system: distamycin binding sites on end-labeled DNA fragment; conditions: cited crystallography; cited from earlier work
[5] = system: distamycin binding sites on end-labeled DNA fragment; test: Footprinting of distamycin; conditions: by Rh(phi)2 (bpy)^3+, 5'-end-labeled fragment
[6] = system: EcoRI site on end-labeled DNA fragment; conditions: cited from earlier work

[Ru].c1cnc2c(c1)ccc1cccnc12.c1cnc2c(c1)ccc1cccnc12.c1cnc2c(c1)ccc1cccnc12 [Ru(phen)3^2+, reference compound]
Unwinding Angle (pBR322 DNA): 19 °
Unwinding Angle (pBR322 DNA; per molecule of bound complex): 19 degrees
EC50 (pBR322 DNA): 9 µM
enantiomer selectively bound by B-form DNA (B-form DNA): Δ-enantiomers
Solubilities in Buffer (Solubility in buffer): 159. (5.3) mM
Emission Enchantment (I/Io) (calf thymus DNA [1]): 1.87 I/Io
Site size (calf thymus DNA [2]): 4 base pairs

O=C1c2cccnc2-c2ncccc21.[Ru+2].c1cnc2c(c1)ccc1cccnc12.c1cnc2c(c1)ccc1cccnc12 [Ru(phen)2 (flone)^2+, [Ru(phen)2 (4,5-diazafuorene-9-one)]Cl2]
binding to DNA (calf thymus DNA [3]): bound very weakly
Solubilities in Buffer (Solubility in buffer): 60. (2.2) mM
Enantioselectivity (calf thymus DNA [2]): no enantiomeric discrimination is apparent
Enantioselectivity (calf thymus DNA [2]; listed as Ru(phen) (flone)Cl): none
Site size (calf thymus DNA [2]): 9-12 base pairs
binding affinity for DNA (calf thymus DNA [2]): indistinguishable from that for Ru(phen)2 bpy^2+
binding affinity for DNA (calf thymus DNA [2]; listed as Ru(phen)^2+2. flone): much lower than would be expected based upon their solvent accessible surfaces

[Ru+2].c1ccc(-c2ccnc3c2ccc2c(-c4ccccc4)ccnc23)cc1.c1ccc(-c2ccnc3c2ccc2c(-c4ccccc4)ccnc23)cc1.c1cnc2c(c1)ccc1cccnc12 [Ru(DIP)2 (phen)^2+]
hypochromism / absorption change on DNA addition (calf thymus DNA [3]): greatest change in absorption
Solubilities in Buffer (Solubility in buffer): 0.18 (.01) mM
solubility (Solubility in buffer; listed as Ru(DIP)2 (phen)2): only sparingly soluble in the buffer solution
solubility (Solubility in buffer; listed as Ru(DIP)2)phen)^2+): too insoluble
Emission Enchantment (I/Io) (calf thymus DNA [1]): 2.14 I/Io
Site size (calf thymus DNA [2]): cooperative
aggregation in solution (calf thymus DNA [2]): tend to agfregate in solution
binding curve type (cooperativity) (calf thymus DNA [2]): cooperatiove binding
binding affinity for DNA (calf thymus DNA [2]): binding similar to that of Ru(phen2 DIP^2+

[Ru+2].c1ccc(-c2ccnc3c2ccc2c(-c4ccccc4)ccnc23)cc1.c1ccc(-c2ccnc3c2ccc2c(-c4ccccc4)ccnc23)cc1.c1ccc(-c2ccnc3c2ccc2c(-c4ccccc4)ccnc23)cc1 [Ru(DIP)3^2+, reference compound]
enantiomer selectively bound by B-form DNA (B-form DNA): Δ-enantiomers
aggregation in solution (calf thymus DNA [2]): extensive aggregation
binding affinity for DNA (calf thymus DNA [2]): appear to bind DNA more avidly

[Ru+2].c1ccc(-c2ccnc3c2ccc2c(-c4ccccc4)ccnc23)cc1.c1ccc(-c2ccnc3c2ccc2c(-c4ccccc4)ccnc23)cc1.c1ccc2nc3c4cccnc4c4ncccc4c3nc2c1 [Ru(dip)2 (dppz)^2+]
luminescence dependence on DNA (DNA): luminesce only in the presence of DNA but not in the presence of H2 O (or Buffer) alone

[Ru+2].c1ccc2nc3c4cccnc4c4ncccc4c3nc2c1.c1cnc2c(c1)ccc1cccnc12.c1cnc2c(c1)ccc1cccnc12 [Ru(phen)2 (dppz)^2+]
luminescence dependence on DNA (DNA): luminesce only in the presence of DNA but not in the presence of H2 O (or Buffer) alone

[Ru+2].c1ccc(-c2ccccn2)nc1.c1ccc(-c2ccccn2)nc1.c1ccc(-c2ccccn2)nc1 [Ru(bpy)3^2+, reference compound]
hypochromism / absorption change on DNA addition (calf thymus DNA [3]): litle hypochromic effect
binding to DNA (calf thymus DNA [3]): bound very weakly
unwinding of the helix (pBR322 DNA; in words): shows little significant unwinding of the helix
EC50 (pBR322 DNA): 650 µM
Emission Enchantment (I/Io) (calf thymus DNA [1]): 1.06 I/Io
intercalation (calf thymus DNA [1]; in words): neither intercalates nor surface-binds to the helix
Km × 10) equilibrium dialysis (intrinsic binding constant Kb) (calf thymus DNA [2]): 0.7(.13) × 10
Site size (calf thymus DNA [2]): 6-12 base pairs

[Ru+2].c1ccc(-c2ccnc3c2ccc2c(-c4ccccc4)ccnc23)cc1.c1cnc2c(c1)ccc1cccnc12.c1cnc2c(c1)ccc1cccnc12 [Ru(phen)2 (DIP)^2+]
hypochromism / absorption change on DNA addition (calf thymus DNA [3]): greatest change in absorption
EC50 (pBR322 DNA): 9 µM
Solubilities in Buffer (Solubility in buffer): 9. (1.2) mM
solubility (Solubility in buffer): only sparingly soluble in the buffer solution
Emission Enchantment (I/Io) (calf thymus DNA [1]): 2.06 I/Io
Site size (calf thymus DNA [2]): cooperative
aggregation in solution (calf thymus DNA [2]): tend to agfregate in solution
binding curve type (cooperativity) (calf thymus DNA [2]): cooperatiove binding

Cn1cc(NC(=O)c2cc(NC(=O)c3cc(NC=O)cn3C)cn2C)cc1C(=O)NCCC(=N)N [distamycin]
binding site size by crystal structure [4]: six
distamycin binding sites footprinted [5]: strong A6 binding site (41-47 bp); also recorded: AATT (67-70, 119-12), TAAT (73-76), AAATT (101-105), and TTAT (107-110)

EcoRI: restriction endonuclease EcoRI
crystal binding site size ([6]; cited crystallography): ten
DNA contact length of EcoRI ([6]; x-ray co-crystal): 10 base pairs

[Ru+2].c1ccc(-c2ccccn2)nc1.c1ccc(-c2ccccn2)nc1.c1ccc(-c2ccnc3c2ccc2c(-c4ccccc4)ccnc23)cc1 [Ru(bpy)2 (DIP)^2+]
binding to DNA (calf thymus DNA [3]): bound very weakly
EC50 (pBR322 DNA): 170 µM
Emission Enchantment (I/Io) (calf thymus DNA [1]): 1.13 I/Io
Km × 10) equilibrium dialysis (intrinsic binding constant Kb) (calf thymus DNA [2]): 1.7(.3) × 10
Site size (calf thymus DNA [2]): 12-18 base pairs

N=C1C(=N)c2ccccc2-c2ccccc21.[Ru+2].c1cnc2c(c1)ccc1cccnc12.c1cnc2c(c1)ccc1cccnc12 [Ru(phen)2 (phi)^2+]
hypochromism / absorption change on DNA addition (calf thymus DNA [3]): hypochromism and a large red shift
Unwinding Angle (pBR322 DNA): 26 °
Unwinding Angle (pBR322 DNA; per molecule of bound complex): 26 degrees
EC50 (pBR322 DNA): 1.2 µM
Solubilities in Buffer (Solubility in buffer): 0.17 (.01) mM
Site size (calf thymus DNA [2]): 2-3 base pairs
intensity in circular dichroism per ruthenium bound (calf thymus DNA [2]; relative to Ru(bpy)2 phi^2+): more than three times greater

Reference: patent US5157032A, “Mixed ligand complexes and uses thereof as binding agents and probes to DNA” (The Trustees of Columbia University In The City of New York, priority 1990, dated 1992)
